Assay: Lung distribution test
Type: in vivo
Conditions: SD rats, 8 hours after oral administration (25 mg/kg); for concentration at 8 h: rat, read-out: Prodrug form concentration (lung)
Protocol: Test Example 5: Lung Distribution Test
Materials and methods for experiments • (1) Animals used: SD rats are used. • (2) Rearing conditions: the SD rats are allowed to freely take solid feed and sterilized tap water. • (3) Dose and grouping setting: a given dose is orally administered. Grouping is set as below.
Oral administration: 1 to 100 mg/kg (n=2 to 3) • (4) The test sample is orally administered in a form of solution or suspension. • (5) Administration method: the test sample is forcedly administered into the stomach through an oral probe for the oral administration. • (6) Evaluation items: Blood and lung are collected, and the concentrations of the compound of the present invention in plasma and lung are measured using LC/MS/MS.
Lung concentrations of Compound I-057 as an active form and Compound I-077 as a prodrug form thereof 8 hours after they were orally administered (25 mg/kg) are shown below.
In addition, lung concentrations of other prodrug forms 8 hours after they were orally administered (25 mg/kg) are shown below.

| Structure (SMILES) | Active form concentration (lung) [ng/g] | concentration at 8 h [ng/g] |
| --- | --- | --- |
| CCC(CC)C(=O)OC[C@H]1N[C@@H](c2cc(C(N)=O)c3c(N)ncnn23)[C@H](O)[C@@H]1O [Compound I-054] | 6480 | – |
| CC(C)(C)CC(=O)OC[C@H]1N[C@@H](c2cc(C(N)=O)c3c(N)ncnn23)[C@H](O)[C@@H]1O [Compound I-058] | – | 12.7 |
| CCC(C)(C)C(=O)OC[C@H]1N[C@@H](c2cc(C(N)=O)c3c(N)ncnn23)[C@H](O)[C@@H]1O [Compound I-063] | – | 3.85 |
| CC(C)(C(=O)OC[C@H]1N[C@@H](c2cc(C(N)=O)c3c(N)ncnn23)[C@H](O)[C@@H]1O)c1ccccc1 [Compound I-072] | – | 6.41 |

— patent US20250170155A1, “NUCLEOSIDE DERIVATIVES AND PRODRUGS THEREOF HAVING VIRAL GROWTH INHIBITORY ACTION” (Shionogi & Co., Ltd., priority 2021, published 2025)
